From PubChem BioAssay AID2366 (The Scripps Research Institute Molecular Screening Center, 2010)
Calls of active or inactive are those of the source.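 How the source made its calls: active means compounds picked for the later follow-up tests because of their potency and selectivity; inactive means compounds skipped in follow-up as weaker or less selective.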

Target: Protein phosphatase methylesterase 1 (Homo sapiens) (UniProt Q9Y570)
Experiment: PME-1 inhibitor potency by in-gel ABPP, dose response, selectivity assay for PME-1 inhibitor project, cell lysate, mouse brain cytosol, FP-rhodamine (AID 2366)

Protein phosphatase methylesterase 1 (Homo sapiens), sequence (Q9Y570 whole entry, looked up): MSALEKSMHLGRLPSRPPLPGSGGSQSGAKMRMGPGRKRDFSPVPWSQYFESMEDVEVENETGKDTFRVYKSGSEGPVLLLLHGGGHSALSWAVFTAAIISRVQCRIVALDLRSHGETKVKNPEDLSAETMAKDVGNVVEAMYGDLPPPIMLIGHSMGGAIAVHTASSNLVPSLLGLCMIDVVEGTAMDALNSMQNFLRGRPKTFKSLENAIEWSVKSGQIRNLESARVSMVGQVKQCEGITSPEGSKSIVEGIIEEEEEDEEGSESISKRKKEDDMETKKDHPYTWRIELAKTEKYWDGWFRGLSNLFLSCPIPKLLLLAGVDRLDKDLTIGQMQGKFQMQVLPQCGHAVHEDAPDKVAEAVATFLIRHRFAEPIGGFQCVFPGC

SMILES: N#C/C(=C\c1cccn1S(=O)(=O)c1cccc(C#N)c1)S(=O)(=O)c1ccc(F)cc1
- IC50: 0.64 µM

SMILES: CS(=O)(=O)/C(C#N)=C/c1cccn1S(=O)(=O)c1ccc([N+](=O)[O-])cc1
- IC50: 3 µM

SMILES: CS(=O)(=O)/C(C#N)=C/c1cccn1S(=O)(=O)c1c(F)c(F)c(F)c(F)c1F
- IC50: > 20 µM (inactive)

SMILES: CC(C)(C)S(=O)(=O)/C(C#N)=C/c1cccn1S(=O)(=O)c1cccc(C#N)c1
- IC50: 3.4 µM

SMILES: CC(C)(C)S(=O)(=O)/C(C#N)=C/c1cccn1S(=O)(=O)c1ccccc1
- IC50: 6.8 µM

SMILES: N#C/C(=C\c1cccn1S(=O)(=O)c1ccccc1)S(=O)(=O)c1ccccc1
- IC50: > 20 µM (inactive)

SMILES: CS(=O)(=O)/C(C#N)=C/c1cccn1S(=O)(=O)c1cccc(C#N)c1
- IC50: 2.5 µM

SMILES: CS(=O)(=O)/C(C#N)=C/c1cccn1S(=O)(=O)c1ccccc1
- IC50: 10.8 µM

SMILES: CS(=O)(=O)/C(C#N)=C/c1cccn1S(=O)(=O)c1ccc(C#N)cc1
- IC50: 4 µM
